Results reported in ChEMBL document CHEMBL5465560, “Selectivity Literature for EUbOPEN Chemogenomic Library” (2024).

Legend:
[1] = target: Cyclin-dependent kinase 5 (Homo sapiens, UniProt Q00535); details: at 10 µM
[2] = target: STE20/SPS1-related proline-alanine-rich protein kinase (Homo sapiens) (UniProt Q9UEW8); assay: Selectivity interaction (KinomeScan (DiscoverX)) EUB0001079a STK39; details: at 1 µM
[3] = target: RAC-alpha serine/threonine-protein kinase (Homo sapiens, UniProt P31749); assay: Selectivity interaction (KinomeScan (DiscoverX)) EUB0001079a AKT1; details: at 1 µM
[4] = target: T1, Myosin light chain kinase, smooth muscle (Homo sapiens, UniProt Q15746); details: at 10 µM
Aurora kinase B = Aurora kinase B (Homo sapiens, UniProt Q96GD4); assay: Selectivity interaction (ActivX KiNativ screen (kinase selectivity in THP-1 cell lysates)) EUB0000639a AURKB; type: subcellular; details: lysate, at 0.01 µM
[5] = target: T2, Mitogen-activated protein kinase kinase kinase kinase 2 (Homo sapiens) (UniProt Q12851); assay: Selectivity interaction (ActivX KiNativ screen (kinase selectivity in THP-1 cell lysates)) EUB0000639a MAP4K2; type: subcellular; details: lysate, at 0.04 µM
T2 sequence (whole entry): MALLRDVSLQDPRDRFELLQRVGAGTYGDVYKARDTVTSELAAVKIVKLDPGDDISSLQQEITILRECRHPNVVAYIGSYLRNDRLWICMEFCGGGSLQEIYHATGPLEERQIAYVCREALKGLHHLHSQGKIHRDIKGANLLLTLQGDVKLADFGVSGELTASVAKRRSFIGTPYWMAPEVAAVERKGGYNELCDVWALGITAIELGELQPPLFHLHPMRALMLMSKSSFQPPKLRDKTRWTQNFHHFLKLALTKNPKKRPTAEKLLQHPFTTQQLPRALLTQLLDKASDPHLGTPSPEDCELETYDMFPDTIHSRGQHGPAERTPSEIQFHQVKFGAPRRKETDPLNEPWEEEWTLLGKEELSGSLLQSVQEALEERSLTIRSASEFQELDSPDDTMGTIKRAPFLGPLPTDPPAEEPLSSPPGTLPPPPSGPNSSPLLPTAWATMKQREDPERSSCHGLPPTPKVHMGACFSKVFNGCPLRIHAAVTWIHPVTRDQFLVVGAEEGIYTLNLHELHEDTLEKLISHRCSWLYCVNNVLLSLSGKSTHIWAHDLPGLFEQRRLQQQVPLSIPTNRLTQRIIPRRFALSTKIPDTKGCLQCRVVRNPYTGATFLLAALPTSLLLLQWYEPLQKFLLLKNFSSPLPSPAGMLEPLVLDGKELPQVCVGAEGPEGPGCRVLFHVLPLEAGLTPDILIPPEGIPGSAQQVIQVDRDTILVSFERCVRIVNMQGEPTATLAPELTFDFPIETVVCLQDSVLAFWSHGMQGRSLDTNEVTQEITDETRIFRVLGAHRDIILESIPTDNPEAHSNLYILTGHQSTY

[6] = target: T3, Myosin-IIIb (Homo sapiens) (UniProt Q8WXR4); assay: Selectivity interaction (KinomeScan (DiscoverX)) EUB0000607a MYO3B; details: at 10 µM
T3 sequence (whole entry): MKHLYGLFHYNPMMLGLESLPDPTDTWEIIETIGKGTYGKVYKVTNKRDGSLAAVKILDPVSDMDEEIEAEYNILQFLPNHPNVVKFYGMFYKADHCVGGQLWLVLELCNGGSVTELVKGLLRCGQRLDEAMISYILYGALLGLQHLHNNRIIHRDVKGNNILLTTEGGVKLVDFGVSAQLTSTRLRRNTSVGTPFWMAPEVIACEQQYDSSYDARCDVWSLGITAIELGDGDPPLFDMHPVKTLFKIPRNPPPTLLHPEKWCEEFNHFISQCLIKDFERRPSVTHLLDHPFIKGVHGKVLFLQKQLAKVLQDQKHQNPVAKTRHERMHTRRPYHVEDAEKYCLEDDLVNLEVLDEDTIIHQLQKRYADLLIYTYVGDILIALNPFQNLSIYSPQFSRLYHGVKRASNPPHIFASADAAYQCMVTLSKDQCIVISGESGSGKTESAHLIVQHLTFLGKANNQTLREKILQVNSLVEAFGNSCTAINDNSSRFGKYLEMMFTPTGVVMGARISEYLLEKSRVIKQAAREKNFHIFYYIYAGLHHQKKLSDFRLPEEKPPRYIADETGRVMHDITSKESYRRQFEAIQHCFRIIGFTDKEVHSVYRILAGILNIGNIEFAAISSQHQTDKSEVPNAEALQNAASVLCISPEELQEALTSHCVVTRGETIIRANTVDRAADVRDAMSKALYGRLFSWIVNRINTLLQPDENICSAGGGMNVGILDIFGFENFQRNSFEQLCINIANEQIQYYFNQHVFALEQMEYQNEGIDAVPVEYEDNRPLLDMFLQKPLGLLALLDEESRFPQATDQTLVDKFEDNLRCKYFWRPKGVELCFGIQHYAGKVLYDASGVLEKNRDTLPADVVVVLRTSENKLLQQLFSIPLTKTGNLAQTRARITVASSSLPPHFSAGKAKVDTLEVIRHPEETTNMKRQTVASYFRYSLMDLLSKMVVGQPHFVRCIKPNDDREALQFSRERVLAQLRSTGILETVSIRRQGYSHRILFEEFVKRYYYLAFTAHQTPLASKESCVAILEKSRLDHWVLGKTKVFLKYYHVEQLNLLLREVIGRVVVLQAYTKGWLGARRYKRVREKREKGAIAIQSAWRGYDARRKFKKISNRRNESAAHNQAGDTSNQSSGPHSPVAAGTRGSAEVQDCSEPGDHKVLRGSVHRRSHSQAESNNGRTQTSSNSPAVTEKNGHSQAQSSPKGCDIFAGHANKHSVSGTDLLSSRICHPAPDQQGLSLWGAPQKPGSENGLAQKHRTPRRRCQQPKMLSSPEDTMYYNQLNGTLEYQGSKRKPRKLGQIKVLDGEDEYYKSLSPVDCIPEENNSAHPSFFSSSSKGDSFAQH

Insulin receptor = Insulin receptor (Homo sapiens, UniProt P06213); assay: Selectivity interaction (Kinase panel (enzymatic assay)) EUB0000595a INSR
[7] = target: T1, Myosin light chain kinase, smooth muscle; assay: Selectivity interaction (KinomeScan (DiscoverX)) EUB0000045b MYLK
[8] = target: Ribosomal protein S6 kinase alpha-3 (Homo sapiens, UniProt P51812); assay: Selectivity interaction (Ambit KINOMEscan and KiNATiv profiling in Jurkat cells) EUB0000090b RPS6KA3; type: cell-based; details: at 1 µM
[9] = tested on: Tyrosine-protein kinase ABL1 (Homo sapiens), P00519 [H396P]; assay: Selectivity interaction (Ambit KINOMEscan and KiNATiv profiling in Jurkat cells) EUB0000090b ABL1; type: cell-based; details: at 1 µM
[10] = target: Dual specificity protein kinase CLK3 (Homo sapiens, UniProt P49761)

T1 sequence (Q15746 whole entry): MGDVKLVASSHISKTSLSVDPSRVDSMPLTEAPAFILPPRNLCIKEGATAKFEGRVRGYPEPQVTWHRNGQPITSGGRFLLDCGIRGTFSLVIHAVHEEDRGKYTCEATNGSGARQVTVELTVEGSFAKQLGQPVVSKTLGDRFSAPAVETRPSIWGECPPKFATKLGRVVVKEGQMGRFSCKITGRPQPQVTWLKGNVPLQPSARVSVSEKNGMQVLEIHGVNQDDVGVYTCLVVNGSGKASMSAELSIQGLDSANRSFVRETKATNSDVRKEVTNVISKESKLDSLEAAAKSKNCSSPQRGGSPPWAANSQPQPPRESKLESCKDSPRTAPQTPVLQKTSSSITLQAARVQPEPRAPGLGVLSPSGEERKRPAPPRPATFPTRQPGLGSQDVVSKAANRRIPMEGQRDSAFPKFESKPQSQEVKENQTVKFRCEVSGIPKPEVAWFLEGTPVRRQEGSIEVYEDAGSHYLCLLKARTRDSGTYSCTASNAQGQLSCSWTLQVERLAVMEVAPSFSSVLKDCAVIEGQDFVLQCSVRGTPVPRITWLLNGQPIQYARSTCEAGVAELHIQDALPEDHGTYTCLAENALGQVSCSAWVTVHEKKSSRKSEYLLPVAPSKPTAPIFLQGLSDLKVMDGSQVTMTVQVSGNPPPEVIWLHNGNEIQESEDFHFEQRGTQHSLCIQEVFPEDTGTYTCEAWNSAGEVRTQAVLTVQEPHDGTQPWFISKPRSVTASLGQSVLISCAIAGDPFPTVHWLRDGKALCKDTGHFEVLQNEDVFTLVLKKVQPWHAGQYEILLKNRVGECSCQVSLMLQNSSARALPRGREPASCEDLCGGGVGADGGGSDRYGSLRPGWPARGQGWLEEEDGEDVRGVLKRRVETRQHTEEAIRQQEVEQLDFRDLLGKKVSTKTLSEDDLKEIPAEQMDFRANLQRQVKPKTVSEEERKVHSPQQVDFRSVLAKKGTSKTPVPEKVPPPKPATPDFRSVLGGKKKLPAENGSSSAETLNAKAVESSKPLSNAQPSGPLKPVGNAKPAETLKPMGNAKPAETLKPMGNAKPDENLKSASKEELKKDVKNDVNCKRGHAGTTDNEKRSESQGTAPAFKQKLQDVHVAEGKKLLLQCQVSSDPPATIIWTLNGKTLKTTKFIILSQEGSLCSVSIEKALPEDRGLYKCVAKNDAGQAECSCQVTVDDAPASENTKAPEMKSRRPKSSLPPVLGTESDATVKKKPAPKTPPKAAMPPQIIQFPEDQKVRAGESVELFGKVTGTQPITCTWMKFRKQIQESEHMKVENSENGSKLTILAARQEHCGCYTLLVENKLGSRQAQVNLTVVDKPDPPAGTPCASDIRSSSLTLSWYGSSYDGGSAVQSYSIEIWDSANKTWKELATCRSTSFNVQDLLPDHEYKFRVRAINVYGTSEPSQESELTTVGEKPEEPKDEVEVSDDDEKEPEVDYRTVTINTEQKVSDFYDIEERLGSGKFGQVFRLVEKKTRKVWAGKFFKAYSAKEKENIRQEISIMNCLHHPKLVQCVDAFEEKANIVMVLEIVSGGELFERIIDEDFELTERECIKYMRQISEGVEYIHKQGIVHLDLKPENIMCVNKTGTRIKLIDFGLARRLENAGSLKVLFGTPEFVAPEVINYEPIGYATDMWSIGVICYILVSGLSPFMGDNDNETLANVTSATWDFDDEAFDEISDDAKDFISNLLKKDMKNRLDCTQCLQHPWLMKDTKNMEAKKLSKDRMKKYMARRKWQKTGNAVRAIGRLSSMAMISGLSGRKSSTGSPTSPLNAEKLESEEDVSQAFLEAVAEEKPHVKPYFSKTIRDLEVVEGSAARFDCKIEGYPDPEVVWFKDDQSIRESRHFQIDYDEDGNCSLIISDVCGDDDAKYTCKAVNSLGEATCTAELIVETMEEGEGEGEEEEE
Sequence of Ribosomal protein S6 kinase alpha-3 (P51812 whole entry): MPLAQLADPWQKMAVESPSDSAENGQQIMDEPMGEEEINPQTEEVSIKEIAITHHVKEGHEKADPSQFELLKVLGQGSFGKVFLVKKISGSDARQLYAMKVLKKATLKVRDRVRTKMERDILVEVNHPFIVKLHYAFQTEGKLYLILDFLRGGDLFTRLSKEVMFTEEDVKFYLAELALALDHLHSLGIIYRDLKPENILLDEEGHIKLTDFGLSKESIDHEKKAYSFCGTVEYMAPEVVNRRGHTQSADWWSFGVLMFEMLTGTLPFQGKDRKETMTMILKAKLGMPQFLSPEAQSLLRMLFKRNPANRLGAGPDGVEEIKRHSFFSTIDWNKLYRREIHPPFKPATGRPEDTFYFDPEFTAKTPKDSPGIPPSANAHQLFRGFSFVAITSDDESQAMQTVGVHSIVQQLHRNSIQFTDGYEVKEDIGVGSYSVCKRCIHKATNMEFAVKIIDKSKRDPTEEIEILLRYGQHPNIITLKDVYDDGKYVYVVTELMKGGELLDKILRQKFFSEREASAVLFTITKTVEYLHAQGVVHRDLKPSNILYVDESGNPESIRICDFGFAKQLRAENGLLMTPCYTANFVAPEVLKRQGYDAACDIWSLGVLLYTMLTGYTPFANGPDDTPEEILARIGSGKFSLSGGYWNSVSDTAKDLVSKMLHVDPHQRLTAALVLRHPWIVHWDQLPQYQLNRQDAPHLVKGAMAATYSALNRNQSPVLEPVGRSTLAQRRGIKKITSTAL
Sequence of Aurora kinase B (Q96GD4 whole entry): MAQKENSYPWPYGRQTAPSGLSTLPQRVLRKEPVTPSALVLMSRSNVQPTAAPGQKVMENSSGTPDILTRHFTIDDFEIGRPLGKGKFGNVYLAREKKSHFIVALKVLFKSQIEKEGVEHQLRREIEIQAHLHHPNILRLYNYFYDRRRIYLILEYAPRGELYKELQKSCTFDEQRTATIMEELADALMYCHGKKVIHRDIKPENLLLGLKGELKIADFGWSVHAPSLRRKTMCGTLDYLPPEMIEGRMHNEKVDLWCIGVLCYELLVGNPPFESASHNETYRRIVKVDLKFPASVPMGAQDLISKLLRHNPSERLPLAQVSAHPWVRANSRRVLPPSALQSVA
Sequence of Insulin receptor (P06213 28-758 limits assumed): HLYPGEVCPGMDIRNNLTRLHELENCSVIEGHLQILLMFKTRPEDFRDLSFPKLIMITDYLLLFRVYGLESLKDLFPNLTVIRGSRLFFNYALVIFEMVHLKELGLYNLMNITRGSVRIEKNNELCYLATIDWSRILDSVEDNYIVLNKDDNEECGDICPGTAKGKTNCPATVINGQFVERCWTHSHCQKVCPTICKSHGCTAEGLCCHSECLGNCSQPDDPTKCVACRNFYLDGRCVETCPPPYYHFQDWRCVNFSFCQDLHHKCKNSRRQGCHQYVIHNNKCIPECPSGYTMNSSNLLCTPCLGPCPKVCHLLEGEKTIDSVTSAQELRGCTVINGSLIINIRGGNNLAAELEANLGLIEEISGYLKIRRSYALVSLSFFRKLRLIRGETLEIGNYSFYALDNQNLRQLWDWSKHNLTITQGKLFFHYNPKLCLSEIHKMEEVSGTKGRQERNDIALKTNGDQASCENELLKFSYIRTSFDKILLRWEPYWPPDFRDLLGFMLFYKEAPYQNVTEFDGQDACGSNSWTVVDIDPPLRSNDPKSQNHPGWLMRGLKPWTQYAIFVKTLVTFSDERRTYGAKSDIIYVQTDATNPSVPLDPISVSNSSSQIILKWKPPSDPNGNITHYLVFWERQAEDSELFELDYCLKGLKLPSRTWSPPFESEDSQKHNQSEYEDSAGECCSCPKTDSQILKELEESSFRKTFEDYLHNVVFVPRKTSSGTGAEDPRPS
Sequence of Insulin receptor (P06213 763-1382 limits assumed): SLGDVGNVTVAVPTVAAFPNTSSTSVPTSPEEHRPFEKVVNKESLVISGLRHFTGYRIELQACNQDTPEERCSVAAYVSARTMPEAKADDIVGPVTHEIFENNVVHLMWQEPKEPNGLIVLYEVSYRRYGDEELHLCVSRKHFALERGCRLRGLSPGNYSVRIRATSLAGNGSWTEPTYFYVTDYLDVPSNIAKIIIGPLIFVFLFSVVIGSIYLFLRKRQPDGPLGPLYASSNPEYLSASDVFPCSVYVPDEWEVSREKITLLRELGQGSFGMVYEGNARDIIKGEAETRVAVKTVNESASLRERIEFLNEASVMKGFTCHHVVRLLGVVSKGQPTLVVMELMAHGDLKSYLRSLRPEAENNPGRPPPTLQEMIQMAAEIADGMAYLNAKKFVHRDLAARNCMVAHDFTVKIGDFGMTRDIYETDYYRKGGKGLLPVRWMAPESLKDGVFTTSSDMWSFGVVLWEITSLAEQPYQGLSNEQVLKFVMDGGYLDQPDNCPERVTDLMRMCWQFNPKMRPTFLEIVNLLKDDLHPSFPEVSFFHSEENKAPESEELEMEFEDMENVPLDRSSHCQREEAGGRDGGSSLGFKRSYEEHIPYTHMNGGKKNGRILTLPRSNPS
Sequence of RAC-alpha serine/threonine-protein kinase (P31749 whole entry): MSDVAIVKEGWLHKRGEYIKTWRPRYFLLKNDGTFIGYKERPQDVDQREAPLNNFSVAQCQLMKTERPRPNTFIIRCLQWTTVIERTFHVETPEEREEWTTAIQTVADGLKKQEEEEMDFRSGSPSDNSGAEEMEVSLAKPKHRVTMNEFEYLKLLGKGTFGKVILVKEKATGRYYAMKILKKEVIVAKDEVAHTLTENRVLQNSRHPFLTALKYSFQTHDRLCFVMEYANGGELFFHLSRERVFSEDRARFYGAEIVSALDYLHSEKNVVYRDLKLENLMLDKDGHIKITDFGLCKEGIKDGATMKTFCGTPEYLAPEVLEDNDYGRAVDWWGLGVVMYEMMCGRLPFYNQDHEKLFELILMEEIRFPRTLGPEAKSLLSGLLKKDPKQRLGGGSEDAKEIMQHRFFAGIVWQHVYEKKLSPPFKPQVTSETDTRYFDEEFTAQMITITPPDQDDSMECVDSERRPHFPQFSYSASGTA

For `CCN(CC)CCCCNc1ncc2cc(-c3cc(OC)cc(OC)c3)c(NC(=O)NC(C)(C)C)nc2n1`, which % of control [1] is on record?
The % of control was 100%.

With `Nc1cnc(N2CCc3cc(S(=O)(=O)Nc4c(F)cc(Cl)cc4F)cc(N4CCCC4=O)c32)nc1` [TP-020n] as the molecule, how does the % of control [2] read?
The % of control was 100%.

And the % of control [3]?
Its % of control is 100%.

Which % of control [4] does the source give for `Cc1cc([C@@H](C)Nc2ccccc2C(=O)O)c2nc(N3CCOCC3)cc(=O)n2c1` [AZD-6482] here?
The % of control was 100%.

How did the % of inhibition (Aurora kinase B) turn out when `CC[C@@H]1[C@H](F)C(=O)N[C@@H]1COc1nccc2cc(C(N)=O)c(OC)cc12` [ZIMLOVISERTIB] was run?
The % of inhibition was 4.9%.

And the % of inhibition [5]?
The % of inhibition was -1%.

`CNC(=O)Nc1ccc(-c2nc(N3CC4CCC(C3)O4)c3cnn(C4CCC5(CC4)OCCO5)c3n2)cc1` was tested. Which % of control [6] did it give?
Its % of control is 91%.

`COCC(=O)NC/C=C/c1ccc2ncnc(Nc3ccc(Oc4ccc(C)nc4)c(C)c3)c2c1` [CP-724714] was tested. Which IC50 (Insulin receptor) did it give?
The IC50 was greater than 10 µM.

Which results are given for `C=CC(=O)Nc1cc(-n2c(=O)ccc3cnc4ccc(-c5ccc(NS(C)(=O)=O)cc5)cc4c32)ccc1C`?
% of control ([7]; at 1 µM): 90%; % of control ([7]; at 10 µM): 100%

What does the source list for `CN(C)C/C=C/C(=O)Nc1ccc(C(=O)N2CCCC(Nc3ncc(Cl)c(-c4c[nH]c5ccccc45)n3)C2)cc1` (stereo not drawn)?
% of control [8]: 100%; % of control [9]: 100%

How did the % of inhibition [10] turn out when `Cc1cnc(Nc2ccc(F)cc2Cl)nc1-c1c[nH]c(C(=O)N[C@H](CO)c2cccc(Cl)c2)c1` was run?
The % of inhibition was 9%.
